Measured values as given in patent US20220304950A1, “[…] THE TREATMENT OF PATIENTS WITH MAJOR DEPRESSIVE DISORDER, INCLUDING SUICIDALITY” (JANSSEN PHARMACEUTICALS, INC., priority 2019, published 2022).

Legend:
[1] = tested on: adult patients with MDD assessed to be at imminent risk for suicide; assay: CGI-SS-R subgroup analysis by prior suicide attempt, Examples 4 and 5; assay type: in vivo, human; conditions: 24 hours after the first dose
From the text: FIG. 17 is a forest plot for the prior suicide attempt sub-group analysis using CGI-SS-R for Examples 4 and 5.
In certain aspects, the disclosure relates to methods for reducing symptoms of major depressive disorder, including suicidality, in a human patient assessed to be at imminent risk for suicide comprising the administration of esketamine in addition to standard of care treatment. As reflected in the reported data, for depressive symptoms, the treatment differences favored the administration of esketamine plus standard of care treatment over standard of care treatment alone. In addition, treatment differences between patients that previously attempted suicide (attempters) and those that had not (non-attempters) were also present (see, e.g., data reflected in FIGS. 9-17). […] Improvement in this population is of clinical relevance considering that prior suicide attempt has been identified as the single most important predictor/risk factor for suicide in subjects with MDD.

[2] = tested on: adult patients with MDD assessed to be at imminent risk for suicide; assay: CGI-SS-R (SIBAT), Study 2 (Example 5); assay type: in vivo, human; conditions: 24 hours post first dose
From the text: The SIBAT is a suicide assessment tool that captures suicidal ideation and behavior(s) as reported by patients and reviewed by clinicians permitting efficient collection and documentation of clinical impression of severity of suicidality and imminent and long-term suicide risk and treatment plans.
The CGI-SS-R rating is scored on a 7-point scale from 0 (normal, not at all suicidal) to 6 (among the most extremely suicidal patients) and will be based on the totality of information available to the clinician, including information from the SIBAT. The CGI-SS-R summarizes the clinician's overall impression of severity of suicidality and will be used to assess the key secondary endpoint in this study. This rating operates like numerous other CGI-severity scales that have been used in other psychiatric studies. These instruments have shown clinical validity and sensitivity to change.
Key secondary efficacy variable: Change in CGI-SS-R from baseline to 24 hours post first dose (Day 2). The CGI-SS-R, derived from the Suicidal Ideation and Behavior Assessment Tool (SIBAT) rating is scored on a 7-point scale from 0 (normal, not at all suicidal) to 6 (among the most extremely suicidal patients).

SMILES: CN[C@]1(c2ccccc2Cl)CCCCC1=O [esketamine, (S)-2-(2-chlorophenyl)-2-(methylamino)cyclohexanone]
- Odds ratio (95% CrI) for an improved CGI-SS-R score relative to placebo+SOC ([1]; subjects with history of prior suicide attempt (FIG. 17)): 2.09 (1.06; 4.23)
- Odds ratio (95% CrI) for an improved CGI-SS-R score relative to placebo+SOC ([1]; subpopulation without prior suicide attempt (FIG. 17)): 1.14 (0.46; 2.83)
- CGI-SS-R change, Hodges-Lehmann estimate (95% CI) of the difference vs placebo+SOC [2]: 0.0 (0.00; 0.00)
- CGI-SS-R, change from baseline to Day 2 (LOCF), median (range) ([2]; esketamine 84 mg+SOC): −1.0 (−6; 2)
